Experimental data taken from patent US20190070174A1, “METHODS OF TREATING NEURODEGENERATIVE DISEASES” (priority 2016, published 2019).

Key:
[1] = system: 5HT2A transcripts; test: Subchronic treatment of Q84 mice, quantitative RT-PCR; type: in vivo, mouse; conditions: brainstem of Q84 mice
Procedure: YACMJD84.2 transgenic mice were housed in cages with a maximum number of five animals and maintained in a standard 12-hour light/dark cycle with food and water ad libitum. Genotyping was performed using DNA isolated from tail biopsy at the time of weaning, and genotypes of all studied mice were confirmed using DNA extracted from tails collected post-mortem. […] Five hours after the final injection, mice were anesthetized with ketamine/xylazine and perfused transcardially with phosphate buffered saline (PBS) (for RNA and protein studies), and brains were immediately placed on dry ice and stored at −80° C.
Reverse transcription of 1.5 μg of total RNA per sample was performed using the iScript cDNA synthesis kit (Bio-RAD). Human ATXN3 and mouse Atxn3, Drd2, 5HT1A, 5HT2A and Gapdh (housekeeping) transcript levels were accessed by quantitative real-time PCR. Relative gene expression was determined using the ΔΔCT method, normalizing for Gapdh mRNA levels.

[2] = Pharmacokinetics after intraperitoneal injection; type: in vivo, mouse; conditions: 15 mg/kg IP, mice
[3] = mouse, in vivo; cited from earlier work
[4] = system: high molecular weight (HMW) ATXN3 species; test: ATXN3 immunoblotting of protein lysates from fly heads; type: in vivo, Drosophila
[5] = system: human mutant ATXN3Q84; type: cell-based; conditions: sagittal brain slices treated for 48 hours, cerebellum and brainstem
Procedure: Nine slices per brain were used in each set of cultures. […] After 48 hours of incubation at 37° C./5% CO2, brain slices were assessed for ATXN3 levels by immunoblotting or immunofluorescence and for cell viability. For immunoblotting, each slice was macrodissected into separate cerebellum and brainstem that were immediately frozen at −80° C. in 80 μL and 150 μL of cold RIPA buffer containing protease inhibitors (Complete, Roche Diagnostics), respectively. Cell viability was assessed on treated slices by incubation in propidium iodide (PI) 1 μg/mL in culture medium for 1 hour. Slices were then mounted in PROLONG Gold Antifade Reagent (Invitrogen) and imaged using a FV500 Olympus confocal microscope.
Protein lysates from cell cultures, mouse brain slices or mouse brains were obtained by lysis in RIPA buffer containing protease inhibitors (Complete, Roche Diagnostics), followed by sonication and centrifugation. The supernatants (soluble protein fractions) were collected, total protein concentration was determined using the BCA method (Pierce) and then stored at −80° C. […] Pellets corresponding to insoluble protein fractions were resuspended in 100 μL of Laemmli buffer 2× and boiled for 10 min. Insoluble proteins were then quantified, and 100 μg were loaded in a filter trap assay apparatus and transferred to a nitrocellulose membrane (0.45 μm pore) that was incubated overnight with rabbit anti-MJD antibody (1:5000) at 4° C. Bound primary antibodies were visualized by incubation with a peroxidase-conjugated anti-mouse or anti-rabbit secondary antibody (1:10000; Jackson Immuno Research Laboratories) followed by treatment with the ECL-plus reagent (Western Lighting, PerkinElmer) and exposure to autoradiography films. Band intensity was quantified by densitometry using ImageJ.
To assess the efficacy of the five compounds to reduce ATXN3 levels in the mammalian brain, secondary screens in organotypic brain slice cultures derived from hemizygous YACMJD84.2 (Q84) transgenic mice were performed.

[6] = system: ATXN3Q55; test: Native PAGE analysis at the end of the ThT assay; type: biochemical, human
[7] = system: ATXN3Q55; test: Thioflavin T (ThT) fluorescence fibril formation assay; type: biochemical, human; conditions: ATXN3Q55 10 μM, compound 400 μM
Procedure: (§1) pGEX-6P1 plasmids encoding GST-ATXN3Q26 and GST-ATXN3Q55 were transformed in Rosetta (DE3) BL21 cells. Colonies grown overnight in LB/ampicillin/chloramphenicol plates at 37° C. were resuspended in 150 mL of the same selection medium and incubated at 37° C., 230 rpm for 2 hours. Bacterial cultures of 1 L of medium were prepared by inoculating 50 mL of the pre-culture and incubating at 37° C., 230 rpm until reaching an OD (600 nm) of 0.6 to 0.8. Expression of fusion proteins was then induced by adding 1 mM isopropyl-1-thio-D-galactopyranoside (IPTG) for 3 hours at 37° C. Cells were collected by centrifugation and stored at −20° C. […] Chromatography fractions were analyzed by SDS-PAGE, and the ones containing pure proteins were concentrated and protein concentration was determined in the Nanodrop (Thermo Scientific) by absorption at 280 nm.
(§2) Samples and blank control (only buffer) (110 μL) were dispensed in each well of a Black/Clear flat bottom 96-well plate (Corning), which was sealed and incubated at 37° C. with agitation in a FLUOstar Omega (BMG Labtech Inc) plate reader. Fluorescence of three replicates of each sample was measured every 10 min for up to 5 days. The […] wavelengths of the filter were 440 nm and 490 nm, respectively, and readings were taken using 90% gain adjustment. Values for protein solutions were normalized to readings of blank buffer.

[8] = system: ATXN3Q26; test: as above; type: biochemical, human; conditions: ATXN3Q26 10 μM, compound 400 μM
Procedure: as §1, §2

In the case of `O=C1CCc2ccc(OCCCCN3CCN(c4cccc(Cl)c4Cl)CC3)cc2N1` [aripiprazole], the 5HT2A transcripts [1] is listed as “increasing”, the “time of maximal concentration in the brain post-injection” value [2] is listed as 30 min and the maximum tolerable dose [3] is listed as 15 mg/kg. For the same molecule, the “HMW ATXN3 species, of levels in vehicle-treated flies” value (“HMW ATXN3 species, of levels” for short) ([4]; day 12, 50 μM) was 0.73, the “HMW ATXN3 species, of levels” value ([4]; day 15, 50 μM) was 0.41 and the “HMW ATXN3 species, of levels” value ([4]; day 19, 50 μM) was 0.53. The “levels of human mutant ATXN3Q84” value [5] was “reduced levels”, the “HMW or other species of ATXN3Q55” value [6] was “no differences” and the “kinetics of ATXN3Q55 fibril formation in the presence or absence of compound” value [7] was “identical”. For the same molecule, the “fibril formation by normal ATXN3Q26” value [8] was “did not interfere with fibril formation”.
